How the values were obtained:
[1] = test system: ZSF1-Ob rats; test: Interventional study in pre-HFpEF ZSF1-Ob rats (obesity, diabetes, hypertension, diastolic dysfunction); type: in vivo, rat
Protocol: A hybrid rat that was a cross between a ZDF female and an SHHF male was utilized.
Briefly, we performed an interventional study in pre-HFpEF rats (15 weeks old) affected by obesity, diabetes, hypertension, diastolic dysfunction, and administered either vehicle, VASTIRAS™ (proANP31-67; VAS; 50 ng/Kg/day administered subcutaneously via Alzet osmotic pump), ENTRESTO™ (ENT; 68 mg/Kg/day administered orally via gavage), or VAS+ENT (VAS/ENT).

[2] = test system: prostaglandin E2 (PGE2) formation in the kidney; details: Chiou & Vesely 1995; cited from earlier work
[3] = test system: ischemia-induced acute tubular necrosis and renal failure; details: Recombinant proANP31-67; Clark et al. 2000; cited from earlier work
[4] = test system: patients with congestive heart failure; details: Delacroix et al. 2016; cited from earlier work
[5] = test system: neprilysin and other endopeptidases; details: cited from earlier work
[6] = in vivo; cited from earlier work
[7] = ZSF1-Ob rats, autopsy, VAS 50 ng/Kg/day sc, ENT 68 mg/Kg/day oral, FIGS. 3-4
[8] = ZSF1-Ob rats, cardiac ultrasound

Substance: proANP31-67 (EVVPPQVLSEPNEEAGAALSPLPEVPPWTGEVSPAQR) [VAS]
- Elevated blood pressure ([1]; ZSF1-Ob rats treated from 15 weeks old, assessed at 25 weeks-old, VAS 50 ng/Kg/day sc, ENT 68 mg/Kg/day oral gavage, FIGS. 5-6): not affected
- atria weight (AW)/TL [1, 7]: tended to decrease
- body weight (BW) [1, 7]: tended to decrease
- heart weight (HW)/tibia length (TL) [1, 7]: tended to decrease
- kidney weight (KW)/TL [1, 7]: tended to decrease
- cardiac output [1, 8]: improved
- global longitudinal strain (GLS) [1, 8]: tended to increase
- renal vascularity ([1]; ZSF1-Ob rats, renal ultrasound, FIGS. 7-13): preserved
- prostaglandin E2 (PGE2) formation in the kidney [2]: stimulate
- ischemia-induced acute tubular necrosis and renal failure [3]: protect
- treatment for renal impairment in patients with congestive heart failure [4]: safe and effective
- degradation by neprilysin and other endopeptidases [5]: resistant
- excretion in urine [6]: excreted largely intact
